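96-well plates; 48 h exposure; 5 concentrations. Endpoints by linear interpolation between flanking doses. Not reached: highest tested concentration assigned. Here, GI50 denotes the concentration required for 50% inhibition of growth. The concentration for full growth arrest is given as TGI.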
How the values were obtained:
Experiment in all cases: NCI-60 cell line screen, 48 h; in the data active means GI50 below about 0.43 µM; inactive means the rest
SK-MEL-5 melanoma = system: SK-MEL-5 melanoma
CCRF-CEM leukemia = system: CCRF-CEM leukemia
SK-OV-3 ovarian = system: SK-OV-3 ovarian
HOP-62 NSCLC = system: HOP-62 NSCLC
NCI-H460 lung = system: NCI-H460 lung
SN12C renal = system: SN12C renal
M14 melanoma = system: M14 melanoma
SW-620 colon = system: SW-620 colon
MDA-MB-435 = system: MDA-MB-435
NCI-H23 lung = system: NCI-H23 lung
SF-268 CNS = system: SF-268 CNS
U251 CNS = system: U251 CNS
DU-145 prostate = system: DU-145 prostate
SNB-19 CNS = system: SNB-19 CNS
RPMI-8226 leukemia = system: RPMI-8226 leukemia
HCC-2998 colon = system: HCC-2998 colon
HCT-116 colon = system: HCT-116 colon
A549 NSCLC = system: A549 NSCLC
NCI-H522 lung = system: NCI-H522 lung
UACC-62 melanoma = system: UACC-62 melanoma
SNB-75 CNS = system: SNB-75 CNS
NCI/ADR-RES ovarian = system: NCI/ADR-RES ovarian
KM12 colon = system: KM12 colon
MDA-MB-231 breast = system: MDA-MB-231 breast
OVCAR-8 ovarian = system: OVCAR-8 ovarian
OVCAR-4 ovarian = system: OVCAR-4 ovarian
A498 renal = system: A498 renal
T-47D breast = system: T-47D breast
UACC-257 melanoma = system: UACC-257 melanoma
RXF 393 renal = system: RXF 393 renal
SF-295 CNS = system: SF-295 CNS
MDA-MB-468 breast = system: MDA-MB-468 breast
HL-60(TB) leukemia = system: HL-60(TB) leukemia
MOLT-4 leukemia = system: MOLT-4 leukemia
SR leukemia = system: SR leukemia
ACHN renal = system: ACHN renal
PC-3 prostate = system: PC-3 prostate
MCF7 breast = system: MCF7 breast
K-562 leukemia = system: K-562 leukemia
SK-MEL-28 melanoma = system: SK-MEL-28 melanoma
OVCAR-5 ovarian = system: OVCAR-5 ovarian
LOX IMVI melanoma = system: LOX IMVI melanoma
HT29 colon = system: HT29 colon
HS 578T breast = system: HS 578T breast
MALME-3M melanoma = system: MALME-3M melanoma
SK-MEL-2 melanoma = system: SK-MEL-2 melanoma
HCT-15 colon = system: HCT-15 colon
UO-31 renal = system: UO-31 renal
SF-539 CNS = system: SF-539 CNS
TK-10 renal = system: TK-10 renal
786-0 renal = system: 786-0 renal
NCI-H226 lung = system: NCI-H226 lung
OVCAR-3 ovarian = system: OVCAR-3 ovarian
IGROV1 ovarian = system: IGROV1 ovarian
EKVX NSCLC = system: EKVX NSCLC
CAKI-1 renal = system: CAKI-1 renal
BT-549 breast = system: BT-549 breast
COLO 205 colon = system: COLO 205 colon
HOP-92 NSCLC = system: HOP-92 NSCLC

Cc1ccc(-c2nc(C#N)c(S(=O)(=O)N3CCN(S(C)(=O)=O)CC3)o2)cc1
37 µM: TGI (MOLT-4 leukemia)
16 µM: TGI (LOX IMVI melanoma)
26 µM: TGI (SR leukemia)
6.92 µM: TGI (SW-620 colon)
inactive: GI50 (SK-MEL-5 melanoma) > 100 µM | GI50 (CCRF-CEM leukemia) 3.83 µM | GI50 (SK-OV-3 ovarian) > 100 µM | GI50 (HOP-62 NSCLC) > 100 µM | GI50 (NCI-H460 lung) > 100 µM | GI50 (SN12C renal) 75.1 µM | GI50 (M14 melanoma) 26.3 µM | GI50 (SW-620 colon) 2.48 µM | GI50 (MDA-MB-435) 37.8 µM | GI50 (NCI-H23 lung) 19.3 µM | GI50 (SF-268 CNS) > 100 µM | GI50 (U251 CNS) 51.7 µM | GI50 (DU-145 prostate) > 100 µM | GI50 (SNB-19 CNS) > 100 µM | GI50 (RPMI-8226 leukemia) 26.7 µM | GI50 (HCC-2998 colon) 53.8 µM | GI50 (HCT-116 colon) 11.8 µM | GI50 (A549 NSCLC) > 100 µM | GI50 (NCI-H522 lung) 2.17 µM | GI50 (UACC-62 melanoma) > 100 µM | GI50 (SNB-75 CNS) > 100 µM | GI50 (NCI/ADR-RES ovarian) 28 µM | GI50 (KM12 colon) > 100 µM | GI50 (MDA-MB-231 breast) > 100 µM | GI50 (OVCAR-8 ovarian) 23.2 µM | GI50 (OVCAR-4 ovarian) > 100 µM | GI50 (A498 renal) > 100 µM | GI50 (T-47D breast) 19.2 µM | GI50 (UACC-257 melanoma) 60.4 µM | GI50 (RXF 393 renal) 75.6 µM | GI50 (SF-295 CNS) 61.7 µM | GI50 (MDA-MB-468 breast) 28.2 µM | GI50 (HL-60(TB) leukemia) 65.2 µM | GI50 (MOLT-4 leukemia) 7.61 µM | GI50 (SR leukemia) 3.16 µM | GI50 (ACHN renal) 44.1 µM | GI50 (PC-3 prostate) > 100 µM | GI50 (MCF7 breast) 3.74 µM | GI50 (K-562 leukemia) 6.66 µM | GI50 (SK-MEL-28 melanoma) > 100 µM | GI50 (OVCAR-5 ovarian) > 100 µM | GI50 (LOX IMVI melanoma) 2.97 µM | GI50 (HT29 colon) 37.1 µM | GI50 (HS 578T breast) > 100 µM | GI50 (MALME-3M melanoma) > 100 µM | GI50 (SK-MEL-2 melanoma) > 100 µM | GI50 (HCT-15 colon) 3.81 µM | GI50 (UO-31 renal) > 100 µM | GI50 (SF-539 CNS) 73.3 µM | GI50 (TK-10 renal) > 100 µM | GI50 (786-0 renal) 64 µM | GI50 (NCI-H226 lung) > 100 µM | GI50 (OVCAR-3 ovarian) 24.6 µM | GI50 (IGROV1 ovarian) > 100 µM | GI50 (EKVX NSCLC) > 100 µM | GI50 (CAKI-1 renal) > 100 µM | GI50 (BT-549 breast) 47.4 µM | GI50 (COLO 205 colon) > 100 µM | GI50 (HOP-92 NSCLC) > 100 µM
> 100 µM: TGI (SK-MEL-5 melanoma) | TGI (CCRF-CEM leukemia) | TGI (SK-OV-3 ovarian) | TGI (HOP-62 NSCLC) | TGI (NCI-H460 lung) | TGI (SN12C renal) | TGI (M14 melanoma) | TGI (MDA-MB-435) | TGI (NCI-H23 lung) | TGI (SF-268 CNS) | TGI (U251 CNS) | TGI (DU-145 prostate) | TGI (SNB-19 CNS) | TGI (RPMI-8226 leukemia) | TGI (HCC-2998 colon) | TGI (A549 NSCLC) | TGI (UACC-62 melanoma) | TGI (SNB-75 CNS) | TGI (NCI/ADR-RES ovarian) | TGI (KM12 colon) | TGI (MDA-MB-231 breast) | TGI (OVCAR-8 ovarian) | TGI (OVCAR-4 ovarian) | TGI (A498 renal) | TGI (T-47D breast) | TGI (UACC-257 melanoma) | TGI (RXF 393 renal) | TGI (SF-295 CNS) | TGI (MDA-MB-468 breast) | TGI (HL-60(TB) leukemia) | TGI (ACHN renal) | TGI (PC-3 prostate) | TGI (MCF7 breast) | TGI (K-562 leukemia) | TGI (SK-MEL-28 melanoma) | TGI (OVCAR-5 ovarian) | TGI (HT29 colon) | TGI (HS 578T breast) | TGI (MALME-3M melanoma) | TGI (SK-MEL-2 melanoma) | TGI (UO-31 renal) | TGI (SF-539 CNS) | TGI (TK-10 renal) | TGI (786-0 renal) | TGI (NCI-H226 lung) | TGI (OVCAR-3 ovarian) | TGI (IGROV1 ovarian) | TGI (EKVX NSCLC) | TGI (CAKI-1 renal) | TGI (BT-549 breast) | TGI (COLO 205 colon) | TGI (HOP-92 NSCLC)
62.5 µM: TGI (HCT-15 colon)
34.7 µM: TGI (HCT-116 colon)
5.94 µM: TGI (NCI-H522 lung)

Reference: PubChem BioAssay (NCI)
